Source: patent US20220144842A1, “IRAK INHIBITORS, PREPARATION METHOD AND MEDICINAL USES THEREOF” (Eternity Bioscience Inc., priority 2020, published 2022)
Where two headings read alike, the source gives them in different places.

Experiments:
[1] = target: T1, full length human IRAK4 protein (Homo sapiens, UniProt Q9NWZ3); test: IRAK4 Biochemical Assay (Promega ADP-Glo IRAK4 Kinase Enzyme System); settings: 3 nM enzyme, 2 μM MBP, 250 μM ATP, 60 min at room temperature, ADP-Glo luminescence
T1 construct: Purified full length human IRAK4 protein; purchased Signal Chem 112-10G-125
T1 sequence (Q9NWZ3 1-460): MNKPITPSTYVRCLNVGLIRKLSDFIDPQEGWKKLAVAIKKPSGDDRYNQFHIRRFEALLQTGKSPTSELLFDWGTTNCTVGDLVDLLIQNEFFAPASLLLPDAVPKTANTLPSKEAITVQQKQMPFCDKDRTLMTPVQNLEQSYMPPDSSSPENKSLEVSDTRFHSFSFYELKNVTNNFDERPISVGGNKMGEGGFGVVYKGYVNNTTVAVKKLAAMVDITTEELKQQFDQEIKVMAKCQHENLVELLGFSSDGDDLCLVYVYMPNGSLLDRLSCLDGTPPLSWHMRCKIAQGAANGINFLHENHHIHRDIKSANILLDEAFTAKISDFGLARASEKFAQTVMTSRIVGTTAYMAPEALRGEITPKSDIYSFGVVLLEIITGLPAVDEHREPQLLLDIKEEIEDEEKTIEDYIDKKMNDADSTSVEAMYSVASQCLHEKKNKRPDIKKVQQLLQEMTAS
Description: For the routine compound screening, an IRAK4 kinase assay was performed as follows using Promega ADP-Glo IRAK4 Kinase Enzyme System (Promega, Cat #2198-AD). Purified full length human IRAK4 protein (Signal Chem; Cat #112-10G-125) was diluted to a concentration 6 nM in assay buffer (25 mM MOPS, pH 7.2, 12.5 mM β-glycerol-phosphate, 25 mM MgCl2, 5 mM EGTA, 2 mM EDTA, 0.0025% Brij-35, add 0.25 mM DTT to Kinase Assay Buffer prior to use) containing IRAK4 inhibitor at 2× the final concentration in 0.4% DMSO. The reaction was performed in PerkinElmer Proxiplate-384 plus white plate (Fisher Scientific, Cat #50-905-2761) and started by the addition of an equal volume of the assay buffer containing 4 μM native swine myelin basic protein (MBP) and 500 μM ATP to achieve a final concentration of 3 nM enzyme, 2 μM MBP, 250 μM ATP, 1× compound, and 0.2% DMSO. The kinase reaction was allowed to run for 60 min at room temperature (25-27° C.), then 5 μL of ADP-Glo was added to the reaction in each well followed by 40 minutes-incubation at RT. To detect converted ATP, 10 μL Detection Buffer was added into each well and Incubate at RT in dark for 30 minutes. Finally, luminescence was read using Tecan with 1000 ms of integration time. The luminescent signal positively correlates with ADP amount and kinase activity. Data was analyzed by GraphPad Prism and IC50 was calculated using function log(inhibitor) vs. response—Variable slope (four parameters). Percentage of inhibition was calculated as below.
(§1) % inhibition=(1−(Reading(Sample)−Reading(Negative Control))/(Reading(Positive Control)−Reading(Negative Control)))×100%
The 0% inhibition value comes from the Reading of Positive Control wells having 0 nM compound. The 100% inhibition value comes from the Reading of Negative Control wells having no IRAK4 kinase.

[2] = target: T2, IRAK4 (Homo sapiens, UniProt Q9NWZ3); test: IRAK4 Human PBMC TNFα Cell Based Assay (AlphaLISA); settings: TNFα in culture medium
T2 construct: host or cells: human PBMCs
T2 sequence (Q9NWZ3 1-460): T1 sequence (Q9NWZ3 1-460)
Description: In this assay, serially diluted compounds were incubated with 1×10^4 human peripheral blood mononuclear cells (PBMCs) from STEMCELL (Cat #70025.1) per well of 384-well plate (Fisher Scientific; 50-905-2761) and cultured with TexMACS medium (Miltenyi, Cat #130-097-196), stimulated by R848 (0.5 μM) or IL-1β (10 ng/ml). Plates were covered with lids and incubated for 4 h (R848, Fisher Scientific, Cat #NC9801605) or 24 h (IL-1β, Fisher Scientific, Cat #ENRIL1BI) at 37° C. in a humidified tissue-culture incubator. After a brief centrifugation at 1000 rpm for 5 minutes, 5 μl of culture medium was used for the measurement of the TNFα amount using TNFα (human) AlphaLISA Detection Kit (PerkinElmer, Cat #AL208C) according to manufacturer's protocol. A biotinylated anti-TNFα antibody binds to the Streptavidin-coated Donor beads while another anti-TNFα antibody is conjugated to AlphaLISA Acceptor beads. In the presence of the TNFα, the beads come into close proximity. The excitation of the Donor beads causes the release of singlet oxygen molecules that triggers a cascade of energy transfer in the Acceptor beads, resulting in a sharp peak of light emission at 615 nm. AlphaLISA assay plates were read using PHERAstar. Percentage of inhibition was calculated as below:
as §1
The 0% inhibition value comes from the Reading of Positive Control wells having 0 nM compound. The 100% inhibition value comes from the Reading of Negative Control wells having no R848 or IL-1β.

[3] = human PBMCs stimulated by IL-1β (10 ng/ml), 24 h, read-out: IRAK4 PBMC AlphaLISA IL-1β (IC50)
[4] = human PBMCs stimulated by R848 (0.5 μM), 4 h, read-out: IRAK4 PBMC AlphaLISA R848 (IC50)

SMILES	IC50 [1]	IRAK4 Biochemical Assay Max Inhibition (%) [1]	IC50 [2, 3]	IC50 [2, 4]
Brc1n[nH]c2nc(Nc3cnn(C4CCOCC4)c3)nc(N[C@H]3CC[C@H](N4CCOCC4)CC3)c12 [Example 1, 3-bromo-N^4-((1r,4r)-4-morpholinocyclohexyl)-N^6-(1-(tetrahydro-2H-pyran-4-yl)-1H-pyrazol-4-yl)-1H-pyrazolo[3,4-d]pyrimidine-4,6-diamine]	4.2 nM	100%	16 nM	35 nM
c1cncc(-c2n[nH]c3nc(Nc4cnn(C5CCOCC5)c4)nc(N[C@H]4CC[C@H](N5CCOCC5)CC4)c23)c1 [Example 2, N^4-((1r,4r)-4-morpholinocyclohexyl)-3-(pyridin-3-yl)-N^6-(1-(tetrahydro-2H-pyran-4-yl)-1H-pyrazol-4-yl)-1H-pyrazolo[3,4-d]pyrimidine-4,6-diamine]	8.2 nM	100%	25 nM	24 nM
c1nn(C2CCOCC2)cc1Nc1nc(N[C@H]2CC[C@H](N3CCOCC3)CC2)c2c(-c3cn[nH]c3)n[nH]c2n1 [Example 3, N^4-((1r,4r)-4-morpholinocyclohexyl)-3-(1H-pyrazol-4-yl)-N^6-(1-(tetrahydro-2H-pyran-4-yl)-1H-pyrazol-4-yl)-1H-pyrazolo[3,4-d]pyrimidine-4,6-diamine]	12 nM	109%	–	–
c1ccc(-c2n[nH]c3nc(Nc4cnn(C5CCOCC5)c4)nc(N[C@H]4CC[C@H](N5CCOCC5)CC4)c23)cc1 [Example 5, N^4-((1r,4r)-4-morpholinocyclohexyl)-3-phenyl-N^6-(1-(tetrahydro-2H-pyran-4-yl)-1H-pyrazol-4-yl)-1H-pyrazolo[3,4-d]pyrimidine-4,6-diamine]	16 nM	100%	56 nM	63 nM
Cc1cc(Nc2nc(N[C@H]3CC[C@H](N4CCOCC4)CC3)c3cn[nH]c3n2)sn1 [Example 6, N^6-(3-methylisothiazol-5-yl)-N^4-((1r,4r)-4-morpholinocyclohexyl)-1H-pyrazolo[3,4-d]pyrimidine-4,6-diamine]	12 nM	100%	0.9 nM	1.6 nM
